{"source": "the NIST ThermoML archive (doi:10.1021/je900218z)", "assay": "mn = molality of the nth substance listed, in mol/kg", "conditions": "298.15 K, 101 kPa, Liquid", "note": "Where “and” joins values, the source holds several entries; their conditions need not be identical. Equal values may be shown once. ± gives the expanded uncertainty stated by the source."}
{"smiles": "O=S(=O)([O-])[O-].[Na+].[Na+]", "note": "[sodium sulfate] + O", "values": [{"measurement": "mass density", "setting": "m1 = 0.2", "result": "1021.93 ± 0.32", "unit": "kg/m3"}, {"measurement": "mass density", "setting": "m1 = 0.4999", "result": "1057.3 ± 0.4 kg/m3 and 1057.32 ± 0.4 kg/m3 and 1057.31 ± 0.4 kg/m3"}, {"measurement": "mass density", "setting": "m1 = 0.6999", "result": "1079.92 ± 0.46 kg/m3 and 1079.94 ± 0.46 kg/m3 and 1079.93 ± 0.46 kg/m3"}, {"measurement": "mass density", "setting": "m1 = 0.9868", "result": "1111.12 ± 0.54", "unit": "kg/m3"}, {"measurement": "mass density", "setting": "m1 = 0.9979", "result": "1112.28 ± 0.54", "unit": "kg/m3"}, {"measurement": "mass density", "setting": "m1 = 0.9999", "result": "1112.48 ± 0.54", "unit": "kg/m3"}, {"measurement": "mass density", "setting": "m1 = 1.196", "result": "1133.04 ± 0.59", "unit": "kg/m3"}, {"measurement": "mass density", "setting": "m1 = 1.2", "result": "1133.46 ± 0.59 kg/m3 and 1133.45 ± 0.59 kg/m3"}]}
